Reference: patent publication US6358966B2, “Treatment of depression” (H. Lundbeck A/S, priority 1998, dated 2002)

Columns and labels:
[1] = tested on: black/white exploration test in rats; settings: cited from earlier work
[2] = tested on: chronic mild stress induced anhedonia in rats; assay: chronic mild stress induced anhedonia in rats (sucrose consumption); type: in vivo, Male Wistar rats
Excerpt: The model of chronic mild stress induced anhedonia in rats. […] This model is based on the observation that chronic mild stress causes a gradual decrease in sensitivity to rewards, for example consumption of sucrose, and that this decrease is dose-dependently reversed by chronic treatment with antidepressants. The method has previously been described and more information with respect to the test appears from Willner, Paul, Psycopharmacology, 1997, 134, 319-329. Male Wistar rats were trained to consume a 1% sucrose solution by nine 1-hour baseline tests in which sucrose was presented in the home cage following 14 h food and water deprivation. One group of animals was subjected to a chronic mild stress procedure for a period of 9 consecutive weeks. Each week of the stress regime consisted of two periods of food and water deprivation, two periods of 45-degree cage tilt, two periods of intermittent illumination (light on and off every 2 h), two periods of soiled cage (250 ml water saw dust bedding), two periods of paired housing, two periods of low stroboscobic illumination (150 flashes/min) and two periods of no stress. All stress periods were of 12-14 hours duration and followed continuously, day and night. Control animals were housed in separate rooms with food and water freely available except for a 14-h period preceding each sucrose test, and they had no contact with stressed animals. Stressed animals as well as control animals were divided into matched subgroups, and for subsequent five weeks they received daily intraperitoneal injections (1 ml/kg body weight) of vehicle (minimum amount of propylene glycol and methane sulfonic acid (1:1) diluted with water) or test compound. Sucrose tests were carried out 24 hours following to last drug treatment.

sigma2 = settings: cited from earlier work
psychosis = settings: cited from earlier work

SMILES: Fc1ccc(-n2cc(CCCCN3CCC4(CC3)OCc3ccccc34)c3ccccc32)cc1 [compound of the invention, 1′-[4-[1-(4-fluorophenyl)-1H-indole-3-yl]-1-butyl]-spiro[isobenzofuran-1(3H),4′-piperidine]]
- anxiolytic activity in the black/white exploration test [1]: active over a large dose range
- consumption of sucrose in the control animals ([2]; non-stressed control rats, daily i.p. for five weeks): did not significantly affect
- sucrose intake in stressed animals versus initial scores ([2]; stressed rats, 1.0 mg/kg daily i.p.): significantly increased from initial scores after three, four and five weeks
- reversal of chronic mild stress induced deficit in sucrose intake ([2]; stressed rats, 1.0 mg/kg daily i.p. for five weeks): able to reverse
- sigma ligand potency and selectivity (sigma2): potent and selective sigma ligand, in particular a sigma2 ligand

SMILES: C[C@@H]1CN(CCCn2c3ccccc3c3ccccc32)C[C@H](C)N1 [rimcazole]
- clinical effect in the treatment of psychosis (psychosis): clinically shows effect in the treatment of psychosis
